The subject of assay [1] is adipocytes prepared from murine adipous tissues. As to the kind of experiment: LDH released into the culture medium by murine adipocytes. It counts as cell-based. The note with it: TDC 500 μM in 150 mOsm/L, compared with 150 mOsm/L alone (FIG. 7). The method, then:
Adipocytes were prepared from murine adipous tissues in the following way. Adipous tissues were sampled under aseptic conditions on anesthetized animals, and then finally cut and subjected to a dissociating enzymatic treatment with collagenase type II at 37° C. The incubation mixture was then centrifuged in order to remove the tissue debris. The adipocytes were purified by filtration under sterile conditions on a 160 μm nylon filter. After mild centrifugation, the adipocytes were washed from a phosphate buffer solution with pH 7.4 and, after counting, taken up again into a cell culture medium adapted from the type of Dubelco Modified Eagle's Medium or DMEM, and finally placed in sterile culture flasks and incubator at 37° C. adapted to the experiments. […]
Cell lysis was appreciated by the change in the number of adipocytes on the one hand and by the dosage of an intracellular enzyme released into the culture medium, lactico-dehydrogenase (abbreviated hereafter as LDH) on the other hand, expressed as a percentage with respect to the conditions for which cell lysis is complete (obtained in the presence of distilled water) and by comparison with the conditions of cell cultures.
For orientation: LDH leaks from cells whose membrane has failed.

For assay [2], the system named is line of human adipocytes (SW872). As to the kind of experiment: LDH activity released on lysis of human adipocytes in culture. It counts as cell-based. The protocol:
To do this, adipocytes were incubated for durations comprised between 0 and 2 hours, in aqueous saline solutions according to the invention, and for which the concentrations of poloxamers and of biliary acid […]
The efficiency of adipocyte lysis was appreciated by the measurement of the activity of a cytosolic enzyme lactico dehydrogenase (LDH), released in the culture medium and expressed as a percentage of the total lysis.
The cells were derived from a line of human adipocytes (SW872) stemming from a liposarcoma deposited at the American Cell Bank of the National Institute of Health (NIH).
The adipocytes were cultivated in the following medium: DMEM (Dubelco's modified Eagle medium) with a high glucose content (4.5 g/L) which contained pyruvate, antibiotics (penicillin/streptomycin), a supplement of amino acids and 25% of Ham-F12 medium.
It should be noted that the experiments were then conducted in the presence of 1% fetal calf serum in order to minimize basal LDH activity likely to be present in the serum.
The salts of biliary acids and/or the poloxamers were put into solution in the aforementioned culture medium under sterile conditions. Suitable diluted aqueous saline solutions were made from parent solutions at 2% for poloxamers and 3 mM for the biliary acid salt.
The adipocytes were cultivated under sterile conditions (plastic dishes, incubator with 5% CO2, 37° C.) in suitable specific media and used for less than 10 passages oso as to conduct experiments on primary cells, i.e. close to the original adipous tissues. Cell counts were carried out in Mallassez cells and the viability was appreciated by exclusion of the blue dye Trypan.
After re-suspending them under the action of trypsin, the adipocytes were incubated in sterile 96-well plates. For experiments requiring significant amounts of cells, the preliminary incubations were conducted in sterile 24-well plates, and then transferred into 96-well plates (round bottom) for centrifugation, in order to efficiently separate entire cells from lyzed cells having released their enzymatic content then again found in the supernatant. An aliquot (100 μL) of the latter was then transferred into another 96-well plate adapted to dosages (flat bottom). After addition of the mixture of corresponding reagents (kit BioChain #K6330400), LDH activity was then measured (after incubation for 40 minutes with intermittent orbital stirring) in a computerized plate reader (MR5000/Biolinx, Dynatech) at the wavelength of 490 nm corrected from absorbance at 630 nm. The results are expressed as a percentage of the total lysis carried out in the presence of detergent (1% Triton X100).

We go through two compounds from patent US20110262562A1, “AQUEOUS SALINE SOLUTIONS FOR THE DESTRUCTION OF FATTY TISSUE” (LIPOLYANE, priority 2008, published 2011).

Take `C[C@H](CCC(=O)NCCS(=O)(=O)[O-])[C@H]1CC[C@H]2[C@@H]3CC[C@@H]4C[C@H](O)CC[C@]4(C)[C@H]3C[C@H](O)[C@]12C.[Na+]` [TDC, sodium tauro-deoxycholate]: in assay [1], the “activity of LDH in the medium” value was “much more increased”.
Consider sodium deoxycholate [DC], for which the “lytic activity (LDH activity)” value in assay [2] (300 mOsm/L, 750 μM of DC, after one hour (FIG. 15 B)) is given as 38±5%. In assay [2] (300 mOsm/L, DC 0 to 750 μM, incubation of one hour), the “maximum lysis (LDH activity)” value is given as 42±7%. Further, the LDH activity in assay [2] (300 mOsm/L, DC 750 μM, after 30 minutes of incubation) is 26%; in assay [2] (300 mOsm/L, DC 750 μM, after 2 hours of incubation) it was 37%; in assay [2] (DC 750 μM added to hypo-osmolar (160 mOsm/L) aqueous saline solution, after one hour (FIG. 15 D or F)) it was about 72±8%.
